{"source": "paper PMC8733726", "about": "“Dioctanoyl Ultrashort Tetrabasic β-Peptides Sensitize Multidrug-Resistant Gram-Negative Bacteria to Novobiocin and Rifampicin” (Frontiers in Microbiology, 2021)", "key": {"[1]": {"tested_on": "MDR E. cloacae", "test": "Checkerboard assay, MDR clinical isolates", "type": "cell-based, Enterobacter cloacae", "details": "antibiotic alone", "method": "(§1) The adjuvant activities of dUSTBβPs were evaluated using checkerboard assay as previously described ([Berry et al., 2019]). Overnight-grown bacterial culture diluted in saline to 0.5 McFarland turbidity was successively diluted 1:50 in MHB to achieve a final concentration of 5 × 10^5 CFU/mL for inoculation. The antibiotic and adjuvant were serially diluted 2-fold along the x-axis and y-axis, respectively, resulting in varying concentrations of both agents in each well. Subsequently, the 96-well plate was incubated with equal volumes of bacterial inoculum at 37°C for 18 h. Confirmation of turbidity was done using an EMax Plus microplate reader (Molecular Devices, United States) at a wavelength of 590 nm. Wells comprising MHB alone or in the presence of bacterial cells were used as negative or positive controls, respectively. Fractional inhibitory concentration index (FICI) is determined by adding the FICs of both antibiotic and adjuvant. The FIC of the antibiotic is calculated by dividing the MIC of the antibiotic in the presence of the adjuvant by the MIC of the antibiotic alone. Similarly, the FIC of the adjuvant is calculated by dividing the MIC of the adjuvant in the presence of the antibiotic by the MIC of the adjuvant alone. FICI ≤ 0.5, 0.5 < x ≤ 4, and >4 were deemed synergistic, additive, and antagonistic, respectively ([Meletiadis et al., 2010])."}, "[2]": {"tested_on": "MDR clinical isolates of P. aeruginosa", "test": "Checkerboard assay, MDR clinical isolates", "type": "cell-based, Pseudomonas aeruginosa", "details": "antibiotic alone", "method": "as §1"}, "[3]": {"tested_on": "MDR A. baumannii 110193", "test": "Time-kill assay", "type": "cell-based, Acinetobacter baumannii", "details": "32 μg/mL novobiocin or 0.5 μg/mL rifampicin alone", "method": "(§2) Overnight-grown bacterial culture diluted in PBS to 0.5 McFarland turbidity was successively diluted 1:50 in lysogeny broth (LB). Cell cultures in the presence of dUSTBβP 3, novobiocin, or rifampicin, or combinations of adjuvant and antibiotic were incubated at 37°C. At designated intervals, 100 μL aliquots acquired from each culture tube were serially diluted in PBS and plated on LB agar plates."}, "[4]": {"tested_on": "wild-type A. baumannii ATCC 17978", "test": "Time-kill assay", "type": "cell-based, Acinetobacter baumannii", "details": "32 μg/mL novobiocin or 0.5 μg/mL rifampicin alone", "method": "as §2"}, "[5]": {"tested_on": "wild-type P. aeruginosa PAO1", "test": "microbe, parasite or virus in culture", "type": "cell-based, Pseudomonas aeruginosa", "details": "PAO1", "outline": "(§3)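 Checkerboard in MHB with 5 × 10^5 CFU/mL inoculum, antibiotic and adjuvant each serially 2-fold diluted on crossed axes. Growth read as turbidity at 590 nm; FICI is the sum of each agent's MIC in combination divided by its MIC alone.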"}, "[6]": {"tested_on": "MDR K. pneumoniae", "type": "cell-based, Klebsiella pneumoniae", "details": "antibiotic alone", "method": "as §1"}, "[7]": {"tested_on": "MDR clinical isolates of A. baumannii", "type": "cell-based, Acinetobacter baumannii", "details": "antibiotic alone", "method": "as §1"}, "[8]": {"tested_on": "MDR E. coli", "type": "cell-based, Escherichia coli", "details": "94393; antibiotic alone", "method": "as §1"}, "[9]": {"details": "in vivo; cited from earlier work"}, "[10]": {"tested_on": "wild-type A. baumannii ATCC 17978", "test": "Checkerboard assay", "type": "cell-based, Acinetobacter baumannii", "details": "ATCC 17978", "outline": "as §3"}, "[11]": {"tested_on": "wild-type E. coli ATCC 25922", "test": "microbe, parasite or virus in culture", "type": "cell-based, Escherichia coli", "details": "ATCC 25922", "outline": "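Antibiotic and adjuvant were serially diluted 2-fold against each other in MHB, inoculated at 5 × 10^5 CFU/mL and incubated at 37°C for 18 h. Growth was read as turbidity at 590 nm. FICI was the sum of each agent's combination MIC divided by its MIC alone; ≤ 0.5 counted as synergy.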"}, "[12]": {"details": "antibiotic with dUSTBβP 3 at 8 μg/mL"}}, "note": "Like-named read-outs stand apart in the source and are kept apart here.", "data": [{"smiles": "CO[C@@H]1[C@@H](OC(N)=O)[C@@H](O)[C@H](Oc2ccc3c(O)c(NC(=O)c4ccc(O)c(CC=C(C)C)c4)c(=O)oc3c2C)OC1(C)C", "note": "[Novobiocin]", "values": [{"measurement": "MICantibiotic", "setting": "[1]; 117029", "result": 512, "unit": "µg/mL"}, {"measurement": "MICantibiotic", "setting": "[1]; 118564", "result": 256, "unit": "µg/mL"}, {"measurement": "MICantibiotic", "setting": "[1]; 121187", "result": 16, "unit": "µg/mL"}, {"measurement": "MICantibiotic", "setting": "[2]; PA259-96196", "result": 1024, "unit": "µg/mL"}, {"measurement": "MICantibiotic", "setting": "[2]; PA259-96196, listed as novobiocin", "result": "1,024 μg/mL"}, {"measurement": "MICantibiotic", "setting": "[2]; PA262-101856", "result": 1024, "unit": "µg/mL"}, {"measurement": "MICantibiotic", "setting": "[2]; PA262-101856, listed as novobiocin", "result": "1,024 μg/mL"}, {"measurement": "MICantibiotic", "setting": "[2]; PA264-104354", "result": 1024, "unit": "µg/mL"}, {"measurement": "MICantibiotic", "setting": "[2]; PA264-104354, listed as novobiocin", "result": "1,024 μg/mL"}, {"measurement": "MICantibiotic", "setting": "[2]; PA91433", "result": 1024, "unit": "µg/mL"}, {"measurement": "MICantibiotic", "setting": "[2]; PA91433, listed as novobiocin", "result": "1,024 μg/mL"}, {"measurement": "MICantibiotic", "setting": "[2]; PA114228", "result": 1024, "unit": "µg/mL"}, {"measurement": "MICantibiotic", "setting": "[2]; PA114228, listed as novobiocin", "result": "1,024 μg/mL"}, {"measurement": "Time-kill outcome", "setting": "[3]", "result": "Bacteriostatic"}, {"measurement": "Time-kill outcome", "setting": "[4]", "result": "Bacteriostatic"}, {"measurement": "MICantibiotic", "setting": "[5]; antibiotic alone", "result": "1,024 μg/mL"}, {"measurement": "MICcombo", "setting": "[5]; [12]", "result": 32, "unit": "µg/mL"}, {"measurement": "MIC", "setting": "[5]; Pseudomonas aeruginosa, 18 h, antibiotic alone (Supplementary Table 7), read-out: MICantibiotic", "result": 1020, "unit": "µg/mL"}, {"measurement": "MICantibiotic", "setting": "[6]; 113250", "result": 128, "unit": "µg/mL"}, {"measurement": "MICantibiotic", "setting": "[6]; 113254", "result": 256, "unit": "µg/mL"}, {"measurement": "MICantibiotic", "setting": "[6]; 116381", "result": 256, "unit": "µg/mL"}, {"measurement": "MICantibiotic", "setting": "[7]; 92247", "result": 4, "unit": "µg/mL"}, {"measurement": "MICantibiotic", "setting": "[7]; 110193", "result": 128, "unit": "µg/mL"}, {"measurement": "MICantibiotic", "setting": "[7]; AB027", "result": 8, "unit": "µg/mL"}, {"measurement": "MICantibiotic", "setting": "[7]; AB031", "result": 4, "unit": "µg/mL"}, {"measurement": "MICantibiotic", "setting": "[7]; LAC-4", "result": "> 0.5", "unit": "µg/mL"}, {"measurement": "MICantibiotic", "setting": "[7]; LAC-4, listed as novobiocin", "result": 1, "unit": "µg/mL"}, {"measurement": "MICantibiotic", "setting": "[8]", "result": 64, "unit": "µg/mL"}, {"measurement": "Steady-state serum concentration", "setting": "[9]", "result": 5, "unit": "µg/mL"}, {"measurement": "MICantibiotic", "setting": "[10]; antibiotic alone", "result": 16, "unit": "µg/mL"}, {"measurement": "MICcombo", "setting": "[10]; [12]", "result": 0.25, "unit": "µg/mL"}, {"measurement": "MIC", "setting": "[10]; Acinetobacter baumannii, ATCC17978, 18 h, antibiotic alone (Supplementary Table 7), read-out: MICantibiotic", "result": 16, "unit": "µg/mL"}, {"measurement": "MICantibiotic", "setting": "[11]; antibiotic alone", "result": 64, "unit": "µg/mL"}, {"measurement": "MICcombo", "setting": "[11]; [12]", "result": 0.125, "unit": "µg/mL"}, {"measurement": "MIC", "setting": "[11]; Escherichia coli, ATCC25922, 18 h, antibiotic alone (Supplementary Table 7), read-out: MICantibiotic", "result": 64, "unit": "µg/mL"}]}]}
